Results as given in the supplement of paper PMC11665569.

Key:
KYSE410 = test: relative viability (fraction of vehicle control); higher = more viable / less inhibited; conditions: treatment time: 5 days
Description: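 CCK-8 viability of KYSE410 cells transfected with control, YAP/TAZ or TEAD1-4 siRNAs and treated with KRAS G12C inhibitors for 5 days. Values are normalised to vehicle control.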

H358 = test: as above; conditions: treatment time: 5 days
Description: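 CCK-8 viability of H358 cells with empty vector or constitutively active YAP S127A, treated with KRAS G12C inhibitors for 5 days. Absorbance at 450 nm normalised to vehicle control.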

C=CC(=O)N1CCN(c2nc(=O)n(-c3c(C)ccnc3C(C)C)c3nc(-c4c(O)cccc4F)c(F)cc23)[C@@H](C)C1 [AMG510]
Conditions	relative viability
H358, log10 concentration (uM): 0, ectopic expression: YAP S127A	0.42
H358, log10 concentration (uM): 0, ectopic expression: empty vector (YAP experiment)	0.15
H358, log10 concentration (uM): 1, ectopic expression: YAP S127A	0.46
H358, log10 concentration (uM): 1, ectopic expression: empty vector (YAP experiment)	0.183
H358, log10 concentration (uM): 1.301029996, ectopic expression: YAP S127A	0.327
H358, log10 concentration (uM): 1.301029996, ectopic expression: empty vector (YAP experiment)	0.172
H358, log10 concentration (uM): -1, ectopic expression: YAP S127A	0.453
H358, log10 concentration (uM): -1, ectopic expression: empty vector (YAP experiment)	0.256
H358, log10 concentration (uM): -1.30103, ectopic expression: YAP S127A	0.52
H358, log10 concentration (uM): -1.30103, ectopic expression: empty vector (YAP experiment)	0.433
H358, log10 concentration (uM): -2, ectopic expression: YAP S127A	0.727
H358, log10 concentration (uM): -2, ectopic expression: empty vector (YAP experiment)	0.822
H358, log10 concentration (uM): -2.30103, ectopic expression: YAP S127A	0.753
H358, log10 concentration (uM): -2.30103, ectopic expression: empty vector (YAP experiment)	0.822
H358, log10 concentration (uM): -3, ectopic expression: YAP S127A	0.96
H358, log10 concentration (uM): -3, ectopic expression: empty vector (YAP experiment)	0.828
H358, log10 concentration (uM): -4, ectopic expression: YAP S127A	0.873
H358, log10 concentration (uM): -4, ectopic expression: empty vector (YAP experiment)	1.01
KYSE410, log10 concentration (uM): 0, siRNA knockdown: TEAD1-4 siRNA 2	0.488
KYSE410, log10 concentration (uM): 0, siRNA knockdown: YAP/TAZ siRNA 1	0.416
KYSE410, log10 concentration (uM): 0, siRNA knockdown: YAP/TAZ siRNA 2	0.353
KYSE410, log10 concentration (uM): 0, siRNA knockdown: negative control siRNA	0.695
KYSE410, log10 concentration (uM): 1, siRNA knockdown: TEAD1-4 siRNA 1	0.181
KYSE410, log10 concentration (uM): 1, siRNA knockdown: TEAD1-4 siRNA 2	0.118
KYSE410, log10 concentration (uM): 1, siRNA knockdown: YAP/TAZ siRNA 1	0.141
KYSE410, log10 concentration (uM): 1, siRNA knockdown: YAP/TAZ siRNA 2	0.137
KYSE410, log10 concentration (uM): 1, siRNA knockdown: negative control siRNA	0.382
KYSE410, log10 concentration (uM): 1.301029996, siRNA knockdown: TEAD1-4 siRNA 1	0.0525
KYSE410, log10 concentration (uM): 1.301029996, siRNA knockdown: TEAD1-4 siRNA 2	0.0471
KYSE410, log10 concentration (uM): 1.301029996, siRNA knockdown: YAP/TAZ siRNA 1	0.0378
KYSE410, log10 concentration (uM): 1.301029996, siRNA knockdown: YAP/TAZ siRNA 2	0.0518
KYSE410, log10 concentration (uM): 1.301029996, siRNA knockdown: negative control siRNA	0.164
KYSE410, log10 concentration (uM): -1, siRNA knockdown: TEAD1-4 siRNA 1	0.691
KYSE410, log10 concentration (uM): -1, siRNA knockdown: TEAD1-4 siRNA 2	0.63
KYSE410, log10 concentration (uM): -1, siRNA knockdown: YAP/TAZ siRNA 1	0.59
KYSE410, log10 concentration (uM): -1, siRNA knockdown: YAP/TAZ siRNA 2	0.489
KYSE410, log10 concentration (uM): -1, siRNA knockdown: negative control siRNA	0.749
KYSE410, log10 concentration (uM): -1.30103, siRNA knockdown: TEAD1-4 siRNA 1	0.727
KYSE410, log10 concentration (uM): -1.30103, siRNA knockdown: TEAD1-4 siRNA 2	0.664
KYSE410, log10 concentration (uM): -1.30103, siRNA knockdown: YAP/TAZ siRNA 1	0.643
KYSE410, log10 concentration (uM): -1.30103, siRNA knockdown: YAP/TAZ siRNA 2	0.522
KYSE410, log10 concentration (uM): -1.30103, siRNA knockdown: negative control siRNA	0.775
KYSE410, log10 concentration (uM): -2, siRNA knockdown: TEAD1-4 siRNA 1	0.946
KYSE410, log10 concentration (uM): -2, siRNA knockdown: TEAD1-4 siRNA 2	1.02
KYSE410, log10 concentration (uM): -2, siRNA knockdown: YAP/TAZ siRNA 1	0.841
KYSE410, log10 concentration (uM): -2, siRNA knockdown: YAP/TAZ siRNA 2	0.713
KYSE410, log10 concentration (uM): -2, siRNA knockdown: negative control siRNA	0.884
KYSE410, log10 concentration (uM): -2.30103, siRNA knockdown: TEAD1-4 siRNA 1	0.967
KYSE410, log10 concentration (uM): -2.30103, siRNA knockdown: TEAD1-4 siRNA 2	0.941
KYSE410, log10 concentration (uM): -2.30103, siRNA knockdown: YAP/TAZ siRNA 1	0.929
KYSE410, log10 concentration (uM): -2.30103, siRNA knockdown: YAP/TAZ siRNA 2	0.7753
KYSE410, log10 concentration (uM): -2.30103, siRNA knockdown: negative control siRNA	0.9373
KYSE410, log10 concentration (uM): -3, siRNA knockdown: TEAD1-4 siRNA 1	1.21
KYSE410, log10 concentration (uM): -3, siRNA knockdown: TEAD1-4 siRNA 2	1.19
KYSE410, log10 concentration (uM): -3, siRNA knockdown: YAP/TAZ siRNA 1	0.996
KYSE410, log10 concentration (uM): -3, siRNA knockdown: YAP/TAZ siRNA 2	0.961
KYSE410, log10 concentration (uM): -3, siRNA knockdown: negative control siRNA	0.953
KYSE410, log10 concentration (uM): -4, siRNA knockdown: TEAD1-4 siRNA 1	1.08
KYSE410, log10 concentration (uM): -4, siRNA knockdown: TEAD1-4 siRNA 2	1.32
KYSE410, log10 concentration (uM): -4, siRNA knockdown: YAP/TAZ siRNA 1	1.03
KYSE410, log10 concentration (uM): -4, siRNA knockdown: YAP/TAZ siRNA 2	0.998
KYSE410, log10 concentration (uM): -4, siRNA knockdown: negative control siRNA	0.951
